In patent US20010024809A1, “Compounds with an antioxidant activity, compositions useful as food integrators containing them and process for their preparation” (priority 2000, published 2001):

Experiment: Chemiluminescent antioxidant capacity in vitro (luminol/H2O2/p-iodophenol, peroxidase)
Type: biochemical
Settings: for Time (min.) necessary for reaching 50% of the control light emission: water control; for light emission: concentration not given; for antioxidant activity in vitro compared with Trolox: same concentration, extinguishing time of the light emission
Method: The antioxidant capacity “in vitro” of FPA and FPB compounds, extracted from Ajuga reptans, and “in vivo” of the serum of rats treated with these substances, was evaluated by means of a chemiluminescent method and compared with that of an analogous hydrosoluble product of vitamin E.
The chemiluminescent reaction of luminol was used, which is oxidized by hydrogen peroxide (H2O2), generating unstable radicals which degenerate to their basic state emitting light. This reaction is catalyzed by peroxidase enzyme. A signal potentiator is also present in the system: p-iodophenol which increases the light emission, producing in turn radicals which degenerate emitting photons.
The presence of substances with an antioxidant activity interrupts the chain of radicalic reactions, temporarily preventing light emission. The time and extinguishing degree of the emission of photons are in relation to the antioxidant capacity and concentration of the substances being tested.
ECL reagent (luminol/H2O2/p-iodophenol) of Amersham International (Amersham, UK).
[…] (type VI-A, 1100 U/mg) of Sigma (St. Louis, Mo., U.S.A.).
Samples relating to FPA and FPB molecules extracted from Ajuga reptans, were prepared in aqueous solution at different concentrations (5.0, 2.0, 1.0 and 0.5 μM) and compared with solutions, at equal concentrations, of Trolox, an analogous hydrosoluble product of tocopherol. The serum of rats treated with raw extract of Ajuga reptans by intravenous administration at a dosage of 200 mg/kg were diluted 1:20 with water and compared with the serum of a non-treated rat.
Distilled water was used as control.
The dosage was effected in black polystyrene cylinders (Dynatech Laboratories, Chantilly, Va., U.S.A.). The chemiluminescent mixture was prepared by adding 100 μl of a dilution 1:10,000 v/v (0.11 U/ml) of a stock solution of peroxidase (1 mg/ml in a Tris-HCl 0.1 M buffer, pH 8.6) to 5 ml of ECL reagent. The various dilutions of the samples were distributed in quadruple into the cylinders (50 μl/cylinder) and 100 μl of chemiluminescent mixture were added to each. The light emission was measured immediately using a Luminograph LB980 (EG&G Berthold, Bad Wildbad, Germany) and the chemiluminescent reaction kinetics was monitored for about 60 minutes. The light emission was measured in photons/sec/pixel and the data obtained are indicated in Table 1 and the graph of FIG. 1 enclosed, compared with the control (water) and references (Trolox or serum of a non-treated rat).

In the case of `Cc1c(C)c2c(c(C)c1O)CCC(C)(C(=O)O)O2` (racemic) [Trolox, (+/−)-6-hydroxy-2,5,7,8-tetramethylchroman-2-carbonsaeure, reference compound], the “Time (min.) necessary for reaching 50% of the control light emission” value (Concentration 0.5 μM) is reported as 1 min, the “Time (min.) necessary for reaching 50% of the control light emission” value (Concentration 1 μM) is reported as 3 min and the “Time (min.) necessary for reaching 50% of the control light emission” value (Concentration 2 μM) is reported as 6 min. For the same compound, the “Time (min.) necessary for reaching 50% of the control light emission” value (Concentration 5 μM) was 15 min, the light emission (Time 0 (min)) was 31.8 photons/sec/pixel and the light emission (Time 2 (min)) was 2.9 photons/sec/pixel. For the same compound, the light emission (Time 5 (min)) was 7.8 photons/sec/pixel, the light emission (Time 7 (min)) was 35.5 photons/sec/pixel and the light emission (Time 9 (min)) was 46.9 photons/sec/pixel. The light emission (Time 11 (min)) was 49.3 photons/sec/pixel, the light emission (Time 14 (min)) was 50.4 photons/sec/pixel and the light emission (Time 17 (min)) was 49.7 photons/sec/pixel. The light emission (Time 19 (min)) was 49.2 photons/sec/pixel, the light emission (Time 21 (min)) was 48.3 photons/sec/pixel and the light emission (Time 23 (min)) was 47.3 photons/sec/pixel. The light emission (Time 26 (min)) was 46.2 photons/sec/pixel, the light emission (Time 28 (min)) was 45.1 photons/sec/pixel and the light emission (Time 30 (min)) was 43.7 photons/sec/pixel. The light emission (Time 32 (min)) was 42.1 photons/sec/pixel, the light emission (Time 34 (min)) was 40.8 photons/sec/pixel and the light emission (Time 37 (min)) was 39.3 photons/sec/pixel. It also gave a light emission (Time 41 (min)) of 35.3 photons/sec/pixel, a light emission (Time 44 (min)) of 35 photons/sec/pixel and a light emission (Time 46 (min)) of 32.8 photons/sec/pixel. It also gave a light emission (Time 49 (min)) of 31.1 photons/sec/pixel, a light emission (Time 51 (min)) of 29.6 photons/sec/pixel and a light emission (Time 53 (min)) of 28.6 photons/sec/pixel. The light emission (Time 56 (min)) was 26.2 photons/sec/pixel, the light emission (Time 58 (min)) was 26.8 photons/sec/pixel and the light emission (Time 61 (min)) was 23.9 photons/sec/pixel.
In the case of `C[C@@H]1O[C@@H](O[C@@H]2[C@@H](O)[C@H](OCCc3ccc(O)c(O)c3)O[C@H](CO)[C@H]2OC(=O)/C=C/c2ccc(O)c(O)c2)[C@H](O[C@@H]2O[C@H](CO)[C@H](O)[C@H](O)[C@H]2O)[C@H](O)[C@H]1O` [FPA, teupolioside], the “Time (min.) necessary for reaching 50% of the control light emission” value (Concentration 0.5 μM) is reported as 13 min, the “Time (min.) necessary for reaching 50% of the control light emission” value (Concentration 1 μM) is reported as 35 min and the “Time (min.) necessary for reaching 50% of the control light emission” value (Concentration 2 μM) is reported as greater than 60 min. The “Time (min.) necessary for reaching 50% of the control light emission” value (Concentration 5 μM) was greater than 60 min, the light emission (Time 0 (min)) was 31.8 photons/sec/pixel and the light emission (Time 2 (min)) was 1.3 photons/sec/pixel. For the same compound, the light emission (Time 5 (min)) was 1.4 photons/sec/pixel, the light emission (Time 7 (min)) was 1 photons/sec/pixel and the light emission (Time 9 (min)) was 0.9 photons/sec/pixel. For the same compound, the light emission (Time 11 (min)) was 0.8 photons/sec/pixel, the light emission (Time 14 (min)) was 0.8 photons/sec/pixel and the light emission (Time 17 (min)) was 0.7 photons/sec/pixel. The light emission (Time 19 (min)) was 0.6 photons/sec/pixel, the light emission (Time 21 (min)) was 0.6 photons/sec/pixel and the light emission (Time 23 (min)) was 0.6 photons/sec/pixel. The light emission (Time 26 (min)) was 0.5 photons/sec/pixel, the light emission (Time 28 (min)) was 0.6 photons/sec/pixel and the light emission (Time 30 (min)) was 0.5 photons/sec/pixel. For the same compound, the light emission (Time 32 (min)) was 0.6 photons/sec/pixel, the light emission (Time 34 (min)) was 1.1 photons/sec/pixel and the light emission (Time 37 (min)) was 0.8 photons/sec/pixel. It also gave a light emission (Time 41 (min)) of 0.7 photons/sec/pixel, a light emission (Time 44 (min)) of 0.9 photons/sec/pixel and a light emission (Time 46 (min)) of 0.8 photons/sec/pixel. For the same compound, the light emission (Time 49 (min)) was 0.8 photons/sec/pixel, the light emission (Time 51 (min)) was 0.8 photons/sec/pixel and the light emission (Time 53 (min)) was 0.8 photons/sec/pixel. It also gave a light emission (Time 56 (min)) of 1.1 photons/sec/pixel, a light emission (Time 58 (min)) of 0.8 photons/sec/pixel and a light emission (Time 61 (min)) of 1.1 photons/sec/pixel. For the same compound, the “activity relative to that of Trolox” value (dosage of 1 μM) was roughly 12 times, the “antioxidant activity of FPA compared with FPB” value (in vitro) was “slightly higher activity with respect to the FPB compound” and the “antioxidant activity in vitro compared with Trolox” value was “extremely high antioxidant activity in vitro, significantly higher than that of Trolox”.
With `COc1cc(C=CC(=O)OC2C(CO)OC(OCCc3ccc(O)c(O)c3)C(O)C2OC2OC(C)C(O)C(O)C2OC2OC(CO)C(O)C(O)C2O)ccc1O` (stereo not shown) [FPB] the “Time (min.) necessary for reaching 50% of the control light emission” value (Concentration 0.5 μM) was 6 min, the “Time (min.) necessary for reaching 50% of the control light emission” value (Concentration 1 μM) was 29 min and the “Time (min.) necessary for reaching 50% of the control light emission” value (Concentration 2 μM) was greater than 60 min. The “Time (min.) necessary for reaching 50% of the control light emission” value (Concentration 5 μM) was greater than 60 min, the light emission (Time 0 (min)) was 31.8 photons/sec/pixel and the light emission (Time 2 (min)) was 0.3 photons/sec/pixel. For the same compound, the light emission (Time 5 (min)) was 0.2 photons/sec/pixel, the light emission (Time 7 (min)) was 0 photons/sec/pixel and the light emission (Time 9 (min)) was 0 photons/sec/pixel. For the same compound, the light emission (Time 11 (min)) was 0 photons/sec/pixel, the light emission (Time 14 (min)) was 0 photons/sec/pixel and the light emission (Time 17 (min)) was 0 photons/sec/pixel. The light emission (Time 19 (min)) was 0.1 photons/sec/pixel, the light emission (Time 21 (min)) was 0.4 photons/sec/pixel and the light emission (Time 23 (min)) was 1.1 photons/sec/pixel. For the same compound, the light emission (Time 26 (min)) was 1.8 photons/sec/pixel, the light emission (Time 28 (min)) was 2.6 photons/sec/pixel and the light emission (Time 30 (min)) was 3.5 photons/sec/pixel. For the same compound, the light emission (Time 32 (min)) was 5.1 photons/sec/pixel, the light emission (Time 34 (min)) was 7 photons/sec/pixel and the light emission (Time 37 (min)) was 6.6 photons/sec/pixel. It also gave a light emission (Time 41 (min)) of 7.6 photons/sec/pixel, a light emission (Time 44 (min)) of 8.6 photons/sec/pixel and a light emission (Time 46 (min)) of 8.9 photons/sec/pixel. For the same compound, the light emission (Time 49 (min)) was 9.6 photons/sec/pixel, the light emission (Time 51 (min)) was 10.3 photons/sec/pixel and the light emission (Time 53 (min)) was 10.9 photons/sec/pixel. For the same compound, the light emission (Time 56 (min)) was 11.4 photons/sec/pixel, the light emission (Time 58 (min)) was 12.1 photons/sec/pixel and the light emission (Time 61 (min)) was 12.7 photons/sec/pixel. For the same compound, the “antioxidant activity in vitro compared with Trolox” value was “extremely high antioxidant activity in vitro, significantly higher than that of Trolox”.
